Experimental data: patent US20250109127A1, “METHODS OF USE OF PHENOXYPROPYLAMINE COMPOUNDS TO TREAT DEPRESSION” (Minerva Neurosciences, Inc., priority 2013, published 2025)
Values joined by “and” are separate entries in the source; they are usually repeats but may differ in a detail not shown here. Equal entries are not always repeated.

System: 5-HIAA release in the rat prefrontal cortex
Experiment: Microdialysis: 5-HIAA release in prefrontal cortex after I.P. administration
Assay type: in vivo
Conditions: for 5-HIAA in dialysate, MEAN / 5-HIAA in dialysate, individual animals: Citalopram 10 mg/kg I.P.
Description: The aim of the study was to evaluate, using microdialysis, the effects of an intraperitoneal (I.P.) administration in rats of three different doses of SON-117 on dopamine and its metabolites, serotonin and its metabolite (5-HIAA), and norepinephrine levels in prefrontal cortex.
Thirty-two adult male Wistar rats were used for the whole study (4 groups of eight animals planned for the study, Table 1).
Surgery was performed on rats weighing about 300 g at the beginning of the experiments. Rats were anaesthetized with Ketamine (50 mg/kg) & Xylazine (15 mg/kg) by intramuscular administration. The animals were placed in a stereotaxic apparatus in the flat-skull position at a constant setting of −3.3 mm between ear bars and the incisor bar. The animals were treated with a local anesthesic (xylocaine 1%, Astra Zeneca) and an analgesic (Temgesic, from Schering Plough, 0.05 mg/kg, s.c.). A rostrocaudal midline incision was made with a lancet to expose the dorsal skull surface. The “stereotaxic zero” was defined by the Bregma in accordance with Paxinos and Watson's atlas (1986). A hole was drilled in the skull with a drill and the meninges were pierced with a sterile needle to implant a CMA12 guide cannula which later received the dialysis probe.
Coordinates used for implanting guide cannula in prefrontal cortex from Bregma were anteroposterior 3.7 mm, mediolateral 0.8 mm, and dorsoventral −2 mm (top of the probe was at −5 mm). The guide cannula was fixed to the skull with two stainless steel screws (1.88 mm outside diameter) anchored. An application of dental cement was added. A plastic collar allowed each animal to be tethered to a Swivel assembly of the CMA 120 awake animal system. Following surgery, rats were kept in individual cages and allowed to recover for a minimum of 3-5 days before the experimentation. The rats were handled and put in plastic bowl for 10 min at least every day to habituate the animals to their new environment for the dialysis. An I.P. administration with saline was also performed every day.
Dialysis probes (CMA12/3 mm, membrane, 20 kD cut-off, Carnegie Medicine, Stockholm, Sweden), were carefully washed before inserting into the guide cannula. The wash was performed with the artificial cerebrospinal fluid (aCSF) medium (NaCl 147 mM, KCl 2.7 mM, CaCl2 1.2 mM, MgCl2 0.85 mM) at room temperature. The dialysis system was then equilibrated at 20° C. at a perfusion rate of 1 μl/min with a Carnegie pump (CMA100). All catheters (FEP tubing, internal volume of 1.2 μl/10 cm, and tubing adaptors) used for microdialysis were treated in the same conditions.
The probes duly prepared were inserted into the guide cannula and the CMA120 Swivel assembly secured to the animal using a plastic collar. Flow through the dialysis probe with aCSF was maintained at a rate of 1 μl/min during the whole experimentation. The first four fractions (corresponding to 2 hours) were discarded to avoid the effects of parenchymal disturbance and to ensure that an approximate steady-state level was reached. Fractions were then collected over a period of 8.5 h during which time the animals remained quiet. The dialysates were automatically collected with an autosampler (microfraction collector CMA 140, Carnegie Medicin) and stored at −80° C. until analysis. […] Perfusion was then maintained for 7 hours with aCSF. The dialysates (30 μl) were collected into 300 μl vials, transferred into dry ice and then kept frozen (−80° C.) until analysis. Frozen samples were shipped to a partner for analysis. At the end of the microdialysis study, a PBS with colored ink was perfused through the probe in order to visualize the dialyzed area.
Catecholamine assay: Concentrations of dopamine, DOPAC, HVA, 5-HIAA, 5-HT, and norepinephrin were determined for each sample by HPLC coupled with electrochemical detection.

SMILES: CN(C)CCCC1(c2ccc(F)cc2)OCc2cc(C#N)ccc21 (stereo not drawn) [Citalopram, citalopram, reference compound]
- 5-HIAA in dialysate, MEAN (T30-T1 h): 112.98 % of respective basal
- 5-HIAA in dialysate, individual animals (T30-T1 h): 108.67 % of respective basal and 107.01 % of respective basal and 121.99 % of respective basal and 141.67 % of respective basal and 110.50 % of respective basal and 102.40 % of respective basal and 95.39 % of respective basal and 116.20 % of respective basal
- 5-HIAA in dialysate, MEAN (T1 h 30-T2 h): 89.03 % of respective basal
- 5-HIAA in dialysate, individual animals (T1 h 30-T2 h): 79.21 % of respective basal and 80.54 % of respective basal and 115.42 % of respective basal and 91.93 % of respective basal and 89.59 % of respective basal and 74.91 % of respective basal and 97.01 % of respective basal and 83.65 % of respective basal
- 5-HIAA in dialysate, MEAN (T1 h-T1 h 30): 101.94 % of respective basal
- 5-HIAA in dialysate, individual animals (T1 h-T1 h 30): 100.18 % of respective basal and 85.46 % of respective basal and 131.13 % of respective basal and 121.97 % of respective basal and 98.30 % of respective basal and 88.97 % of respective basal and 88.75 % of respective basal and 100.76 % of respective basal
- 5-HIAA in dialysate, MEAN (T2 h 30-T3 h): 72.04 % of respective basal
- 5-HIAA in dialysate, individual animals (T2 h 30-T3 h): 51.39 % of respective basal and 53.65 % of respective basal and 94.55 % of respective basal and 76.96 % of respective basal and 86.07 % of respective basal and 61.11 % of respective basal and 78.96 % of respective basal and 73.66 % of respective basal
- 5-HIAA in dialysate, MEAN (T2 h-T2 h 30): 82.39 % of respective basal
- 5-HIAA in dialysate, individual animals (T2 h-T2 h 30): 86.10 % of respective basal and 66.06 % of respective basal and 115.98 % of respective basal and 81.96 % of respective basal and 87.60 % of respective basal and 62.15 % of respective basal and 79.47 % of respective basal and 79.79 % of respective basal
- 5-HIAA in dialysate, MEAN (T3 h 30-T4 h): 74.61 % of respective basal
- 5-HIAA in dialysate, individual animals (T3 h 30-T4 h): 73.28 % of respective basal and 61.52 % of respective basal and 99.49 % of respective basal and 73.39 % of respective basal and 75.64 % of respective basal and 59.18 % of respective basal and 77.94 % of respective basal and 76.45 % of respective basal
- 5-HIAA in dialysate, MEAN (T3 h-T3 h 30): 73.07 % of respective basal
- 5-HIAA in dialysate, individual animals (T3 h-T3 h 30): 74.34 % of respective basal and 48.79 % of respective basal and 107.40 % of respective basal and 68.89 % of respective basal and 77.21 % of respective basal and 56.57 % of respective basal and 77.95 % of respective basal and 73.43 % of respective basal
- 5-HIAA in dialysate, MEAN (T4 h 30-T5 h): 71.07 % of respective basal
- 5-HIAA in dialysate, individual animals (T4 h 30-T5 h): 75.13 % of respective basal and 59.79 % of respective basal and 90.52 % of respective basal and 59.71 % of respective basal and 66.71 % of respective basal and 59.77 % of respective basal and 77.37 % of respective basal and 79.55 % of respective basal
- 5-HIAA in dialysate, MEAN (T4 h-T4 h 30): 73.18 % of respective basal
- 5-HIAA in dialysate, individual animals (T4 h-T4 h 30): 72.77 % of respective basal and 52.24 % of respective basal and 97.15 % of respective basal and 67.66 % of respective basal and 75.69 % of respective basal and 64.72 % of respective basal and 80.07 % of respective basal and 75.12 % of respective basal
- 5-HIAA in dialysate, MEAN (T5 h 30-T6 h): 68.38 % of respective basal
- 5-HIAA in dialysate, individual animals (T5 h 30-T6 h): 55.76 % of respective basal and 56.52 % of respective basal and 86.58 % of respective basal and 66.99 % of respective basal and 65.74 % of respective basal and 68.20 % of respective basal and 71.48 % of respective basal and 75.45 % of respective basal
- 5-HIAA in dialysate, MEAN (T5 h-T5 h 30): 69.50 % of respective basal
- 5-HIAA in dialysate, individual animals (T5 h-T5 h 30): 50.96 % of respective basal and 91.09 % of respective basal and 61.61 % of respective basal and 64.79 % of respective basal and 60.00 % of respective basal and 84.10 % of respective basal and 73.94 % of respective basal
- 5-HIAA in dialysate, MEAN (T6 h 30-T7 h): 67.44 % of respective basal
- 5-HIAA in dialysate, individual animals (T6 h 30-T7 h): 61.13 % of respective basal and 52.63 % of respective basal and 87.81 % of respective basal and 64.43 % of respective basal and 57.20 % of respective basal
- 5-HIAA in dialysate, MEAN (T6 h-T6 h 30): 63.81 % of respective basal
- 5-HIAA in dialysate, individual animals (T6 h-T6 h 30): 60.01 % of respective basal and 53.66 % of respective basal and 90.97 % of respective basal and 62.02 % of respective basal and 55.94 % of respective basal and 67.93 % of respective basal and 47.86 % of respective basal and 72.09 % of respective basal
- 5-HIAA in dialysate, MEAN (T-30 min-T0 (pre-dose)): 102.91 % of respective basal
- 5-HIAA in dialysate, MEAN (T-1 h 30-T-1 h (pre-dose)): 97.47 % of respective basal
- 5-HIAA in dialysate, MEAN (T-1 h-T-30 min (pre-dose)): 98.99 % of respective basal
- 5-HIAA concentration in prefrontal cortex, significant slight increase (citalopram 10 mg/kg IP, at 0.5 h and 1 h): 113%
